Consider two molecules from patent US10550105B2 (Ribon Therapeutics Inc., priority 2018, dated 2020).

Structures are written as SMILES. Where only a bound is given, the exact number is not on record here.

Test [1] concerns NCI-H1373 lung cancer cells. The test can be described thus: Inhibition of cancer cell growth in NCI-H1373 lung cancer cells (FIG. 2). It is filed as cell-based, human.
The next test has as its system NCI-H1975. The test can be described thus: Growth inhibition of cancer cell lines, 72 hrs (CellTiter-Glo). It is filed as cell-based. Particulars: Homo sapiens, lung, non small cell carcinoma. As to the method:
(§1) Example C: Inhibition of Cancer Cell Growth by Treatment with PARP7 Inhibitors
(§2) Table A-2 and Table A-3 (below) represents the concentration that causes 50% growth inhibition (GI50) in a panel of cancer cell lines with Compound 18B and Compound 561. Cells were plated into 384-well plates at a pre-specified density in fetal bovine serum-containing media. Cells were treated with compound or vehicle (DMSO) 24 hrs later, and a day zero plate was collected for analysis. Test compound plates were incubated continuously for 72 hrs (Table A-2) or 144 hours (Table A-3) cell growth was assessed using a luminescent cell viability assay (CellTiter-Glo, Promega). The GI50was determined by correcting for the cell count at time zero (time of treatment) and plotting data as percent growth relative to vehicle-treated cells.
For orientation: Cellular ATP, detected with luciferase, serves as a proxy for viable cell number.

In another test the test system is OVISE. Described as above. Particulars: ovary, clear cell carcinoma. It is filed as cell-based. On the procedure:
as §1, §2

Another test has as its system CAL 27. Described as above. It is filed as cell-based. Particulars: Homo sapiens, upper aerodigestive tract, squamous cell carcinoma. As to the method: as §1, §2
For another test, the system named is FaDu. The test is described as above. It is filed as cell-based. Particulars: Homo sapiens, upper aerodigestive tract, squamous cell carcinoma. On the procedure: as §1, §2
The subject of another test is COLO-680N. The test is described as above. It is filed as cell-based. Particulars: Homo sapiens, oesophagus, squamous cell carcinoma. On the procedure: as §1, §2
The test system of the next test is SW 900. The test is described as above. It is filed as cell-based. Particulars: Homo sapiens, SW900, lung, squamous cell carcinoma. On the procedure: as §1, §2
The test system of the next test is KMRC-3. Described as above. It is filed as cell-based. The following applies: kidney, clear cell renal cell carcinoma. As to the method:
as §1, §2

In the next test the test system is NCI-H441. The description is as above. The following applies: Homo sapiens, lung, adenocarcinoma. It is filed as cell-based. On the procedure: as §1, §2
For a further test, the system named is NCI-H1963. The description is as above. It is filed as cell-based. The following applies: Homo sapiens, lung, small cell carcinoma. On the procedure: as §1, §2
For the next test, the system named is EN. The description is as above. It is filed as cell-based. The following applies: endometrium, not specified. On the procedure:
as §1, §2

The subject of the next test is EBC-1. The test is described as above. It is filed as cell-based. Particulars: Homo sapiens, lung, squamous cell carcinoma. As to the method:
as §1, §2

The subject of the next test is NCI-H647. The description is as above. It is filed as cell-based. Particulars: Homo sapiens, lung, mixed adenosquamous carcinoma. As to the method:
as §1, §2

In the next test the test system is NCI-H1437. Described as above. It is filed as cell-based. The following applies: Homo sapiens, lung, adenocarcinoma. On the procedure: as §1, §2
The next test concerns HDQ-P1. The test is described as above. It is filed as cell-based. Particulars: Homo sapiens, breast, ductal carcinoma. On the procedure:
as §1, §2

In the next test the test system is YD-10B. Described as above. It is filed as cell-based. Particulars: upper aerodigestive tract, squamous cell carcinoma. On the procedure:
as §1, §2

Another test has as its system SK-BR-3. Described as above. It is filed as cell-based. The following applies: Homo sapiens, breast, not specified. As to the method:
as §1, §2

The subject of the next test is YH-13. The description is as above. It is filed as cell-based. The following applies: central nervous system, astrocytoma Grade IV. On the procedure:
as §1, §2

Another test has as its system NCI-H1930. The description is as above. It is filed as cell-based. The following applies: Homo sapiens, lung, small cell carcinoma. On the procedure: as §1, §2
A further test concerns HCC1187. Described as above. It is filed as cell-based. The following applies: Homo sapiens, breast, ductal carcinoma. On the procedure:
as §1, §2

Another test deals with LUDLU-l. The test is described as above. It is filed as cell-based. Particulars: lung, squamous cell carcinoma. On the procedure: as §1, §2
For another test, the system named is HCC1937. Described as above. Particulars: Homo sapiens, breast, ductal carcinoma. It is filed as cell-based. As to the method:
as §1, §2

Another test has as its system SNU-719. The description is as above. Particulars: stomach, not specified. It is filed as cell-based. On the procedure:
as §1, §2

Another test relates to IA-LM. Described as above. It is filed as cell-based. The following applies: lung, large cell carcinoma. On the procedure:
as §1, §2

The test system of a further test is NCI-H2347. Described as above. It is filed as cell-based. The following applies: Homo sapiens, lung, adenocarcinoma. As to the method:
as §1, §2

For another test, the system named is TE-8. The test is described as above. It is filed as cell-based. The following applies: Homo sapiens, oesophagus, squamous cell carcinoma. On the procedure: as §1, §2
The subject of a further test is HCC1599. The test is described as above. It is filed as cell-based. Particulars: Homo sapiens, breast, ductal carcinoma. As to the method:
as §1, §2

The test system of another test is JHOS-2. The description is as above. It is filed as cell-based. The following applies: ovary, adenocarcinoma. As to the method: as §1, §2
For a further test, the system named is NCI-H2066. The test is described as above. It is filed as cell-based. The following applies: lung, small cell carcinoma. As to the method:
as §1, §2

The next test relates to TUHR10TKB. The description is as above. It is filed as cell-based. Particulars: kidney, not specified. As to the method: as §1, §2
For another test, the system named is LXF-289. The test is described as above. Particulars: Homo sapiens, lung, adenocarcinoma. It is filed as cell-based. On the procedure:
as §1, §2

The next test relates to TYK-nu. The test is described as above. It is filed as cell-based. Particulars: ovary, undifferentiated carcinoma. On the procedure: as §1, §2
Another test relates to HCC-1195. Described as above. It is filed as cell-based. The following applies: lung, mixed adenosquamous carcinoma. As to the method:
as §1, §2

The subject of the next test is EFE-184. Described as above. It is filed as cell-based. Particulars: Homo sapiens, endometrium, not specified. As to the method: as §1, §2
A further test relates to NCI-H2081. The test is described as above. It is filed as cell-based. Particulars: Homo sapiens, lung, not specified. On the procedure: as §1, §2
The next test has as its system Panc 03.27. The test is described as above. It is filed as cell-based. The following applies: Homo sapiens, PANC-03-27, pancreas, ductal carcinoma. On the procedure: as §1, §2
The next test deals with Hs 578T. The description is as above. It is filed as cell-based. Particulars: Homo sapiens, breast, ductal carcinoma. On the procedure:
as §1, §2

A further test relates to MDA-MB-468. The test is described as above. It is filed as cell-based. The following applies: Homo sapiens, breast, not specified. On the procedure: as §1, §2
A further test deals with HCC827. The description is as above. It is filed as cell-based. Particulars: Homo sapiens, lung, adenocarcinoma. As to the method:
as §1, §2

For the next test, the system named is HCC-2279. The test is described as above. It is filed as cell-based. The following applies: lung, adenocarcinoma. As to the method: as §1, §2
For the next test, the system named is NCI-H1373. The description is as above. It is filed as cell-based. Particulars: Homo sapiens, lung, adenocarcinoma. On the procedure: as §1, §2
The test system of the next test is GSS. Described as above. It is filed as cell-based. Particulars: stomach, adenocarcinoma. As to the method:
as §1, §2

The subject of a further test is T3M-10. The test is described as above. Particulars: lung, large cell carcinoma. It is filed as cell-based. On the procedure:
as §1, §2

In the next test the test system is COR-L105. The description is as above. It is filed as cell-based. The following applies: Homo sapiens, lung, adenocarcinoma. As to the method: as §1, §2
Test [2] deals with CT26 colon cancer syngeneic model. Briefly: Tumor growth in the murine syngeneic model CT26 (FIG. 6A-C, 7B). The following applies: once or twice daily administration, FIG. 7B. It is filed as in vivo, mouse.

Consider `N#Cc1ccc(N2CCN(C(=O)c3cccc(OC[C@@H]4c5ccccc5CN4c4cn[nH]c(=O)c4C(F)(F)F)c3)CC2)nc1` (single isomer, unassigned) [Example 18 Isomer B], for which, in [1], the “growth of NCI-H1373 lung cancer cells” value is listed as “dose-dependent decrease in growth”. In addition, the GI50 in the test on NCI-H1975 was 0.1 to 1 µM; in the test with OVISE, 0.1 to 1 µM; in the test on CAL 27 it was less than 0.1 µM; in the test on FaDu, 0.1 to 1 µM; in the test with COLO-680N, less than 0.1 µM; with SW 900, less than 0.1 µM. In addition, the GI50 in the test on KMRC-3 was 0.1 to 1 µM; in the test on NCI-H441 it was 0.1 to 1 µM; in the test with NCI-H1963, less than 0.1 µM; in the test with EN, 0.1 to 1 µM; in the test with EBC-1, less than 0.1 µM; in the test with NCI-H647 it was less than 0.1 µM. Further, the concentration for 50% growth inhibition (GI50) with NCI-H1437 is less than 0.1 µM; in the test on HDQ-P1, 0.1 to 1 µM; in the test with YD-10B it was less than 0.1 µM; in the test with SK-BR-3, 0.1 to 1 µM; with YH-13 it was less than 0.1 µM; in the test with NCI-H1930, less than 0.1 µM. Moreover, the GI50 in the test on HCC1187 was 0.1 to 1 µM; with LUDLU-l, 0.1 to 1 µM; in the test on HCC1937, less than 0.1 µM; in the test with SNU-719 it was 0.1 to 1 µM; in the test on IA-LM, less than 0.1 µM; in the test on NCI-H2347, less than 0.1 µM. For the same molecule, the concentration for 50% growth inhibition (GI50) in the test on TE-8 is less than 0.1 µM; with HCC1599, 0.1 to 1 µM; in the test with JHOS-2, less than 0.1 µM; in the test on NCI-H2066, 0.1 to 1 µM; in the test on TUHR10TKB, less than 0.1 µM; with LXF-289 it was 0.1 to 1 µM. Also, the GI50 was less than 0.1 µM in the test on TYK-nu; 0.1 to 1 µM in the test on HCC-1195; less than 0.1 µM with EFE-184; 0.1 to 1 µM in the test with NCI-H2081; less than 0.1 µM in the test with Panc 03.27; 0.1 to 1 µM in the test with Hs 578T. The GI50 in the test with MDA-MB-468 was less than 0.1 µM; in the test with HCC827, 0.1 to 1 µM; in the test on HCC-2279 it was 0.1 to 1 µM; in the test on NCI-H1373 it was less than 0.1 µM; in the test with GSS, 0.1 to 1 µM; in the test on T3M-10 it was less than 0.1 µM. This molecule also displayed a GI50 with COR-L105 of 0.1 to 1 µM.

On to `C[C@@H](COCCC(=O)N1CCN(c2ncc(C(F)(F)F)cn2)CC1)Nc1cn[nH]c(=O)c1C(F)(F)F` [Example 561, 5-[[(2S)-1-(3-oxo-3-[4-[5-(trifluoromethyl)pyrimidin-2-yl]piperazin-1-yl]propoxy)propan-2-yl]amino]-4-(trifluoromethyl)-2,3-dihydropyridazin-3-one], for which the tumor growth result in test [2] is recorded as “significantly reduces tumor growth”.

What is called GI50 is the concentration at which growth is held to half of that of the control. Read a low GI50 as more potent growth inhibition.
